The text below walks through data of ChEMBL document CHEMBL4041516, “SAR study of 5-alkynyl substituted quinazolin-4(3H)-ones as phosphoinositide 3-kinase delta (PI3Kδ) inhibitors” (Eur J Med Chem, 2017).

Data set [1] concerns the target T1, Phosphatidylinositol 4,5-bisphosphate 3-kinase catalytic subunit gamma isoform (Homo sapiens, UniProt P48736). Nature of the data set: Inhibition of PI3Kgamma (unknown origin) using PIP2 as substrate measured after 30 mins by HTRF assay. For orientation: In TR-FRET formats the signal depends on donor and acceptor labels being close together.
In data set [2] the target is T2, Phosphatidylinositol 4,5-bisphosphate 3-kinase catalytic subunit delta isoform (Homo sapiens, UniProt O00329).
T2 sequence (O00329 whole entry): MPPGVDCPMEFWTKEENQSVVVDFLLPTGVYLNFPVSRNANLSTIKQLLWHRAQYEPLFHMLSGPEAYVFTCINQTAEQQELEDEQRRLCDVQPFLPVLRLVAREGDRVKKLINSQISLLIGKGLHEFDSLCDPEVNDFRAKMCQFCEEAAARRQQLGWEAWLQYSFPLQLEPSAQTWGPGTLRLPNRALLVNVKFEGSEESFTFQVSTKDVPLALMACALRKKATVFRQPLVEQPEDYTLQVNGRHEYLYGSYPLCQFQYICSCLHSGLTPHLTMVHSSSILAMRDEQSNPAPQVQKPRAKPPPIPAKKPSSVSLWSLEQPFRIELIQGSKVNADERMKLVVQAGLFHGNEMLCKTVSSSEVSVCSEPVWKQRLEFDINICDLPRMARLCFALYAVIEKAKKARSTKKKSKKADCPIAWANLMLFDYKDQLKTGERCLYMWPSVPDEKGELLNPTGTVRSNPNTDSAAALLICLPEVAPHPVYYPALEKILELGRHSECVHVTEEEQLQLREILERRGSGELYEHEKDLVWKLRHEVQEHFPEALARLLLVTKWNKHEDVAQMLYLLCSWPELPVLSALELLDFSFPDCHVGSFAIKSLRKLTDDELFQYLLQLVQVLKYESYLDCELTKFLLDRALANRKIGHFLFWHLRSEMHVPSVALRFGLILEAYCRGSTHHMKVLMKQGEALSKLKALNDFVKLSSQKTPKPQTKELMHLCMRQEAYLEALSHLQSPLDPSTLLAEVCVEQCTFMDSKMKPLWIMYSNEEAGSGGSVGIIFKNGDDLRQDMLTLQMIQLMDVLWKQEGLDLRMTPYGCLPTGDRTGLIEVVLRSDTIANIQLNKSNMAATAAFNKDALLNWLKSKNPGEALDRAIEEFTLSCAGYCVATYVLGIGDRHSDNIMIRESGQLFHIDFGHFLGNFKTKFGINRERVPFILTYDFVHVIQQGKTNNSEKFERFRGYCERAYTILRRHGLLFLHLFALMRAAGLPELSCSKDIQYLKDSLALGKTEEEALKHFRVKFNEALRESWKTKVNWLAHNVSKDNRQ
Nature of the data set: Inhibition of PI3Kdelta (unknown origin) using PIP2 as substrate measured after 30 mins by HTRF assay.

The next data set deals with SU-DHL-6. As to the kind of experiment: Antiproliferative activity against human SUDHL6 cells measured after 72 hrs by alamar blue assay. As to conditions: SU-DHL-6, 72 h. Type of data set: functional, cell-based. In general terms: Resazurin is reduced to fluorescent resorufin, in cell work by metabolically active cells.
Data set [3] concerns the target T3, Phosphatidylinositol 4,5-bisphosphate 3-kinase catalytic subunit alpha isoform (Homo sapiens, UniProt P42336). Nature of the data set: Inhibition of PI3Kalpha (unknown origin) using PIP2 as substrate measured after 30 mins by HTRF assay.
Data set [4] has as its target Phosphatidylinositol 4,5-bisphosphate 3-kinase catalytic subunit beta isoform (Homo sapiens, UniProt P42338). As to the kind of experiment: Inhibition of PI3Kbeta (unknown origin) using PIP2 as substrate measured after 30 mins by HTRF assay.
The test system of another data set is KARPAS-422. As to the kind of experiment: Antiproliferative activity against human KARPAS422 cells measured after 72 hrs by alamar blue assay. Type of data set: functional, cell-based. As to conditions: KARPAS-422, 72 h.
Data set [5] can be described thus: Antiproliferative activity against human WSU-DLCL2 cells measured after 72 hrs by alamar blue assay. In kind it is functional, cell-based. To be noted: WSUDLCL2, 72 h.
Another data set deals with HT. As to the kind of experiment: Antiproliferative activity against human HT cells measured after 72 hrs by alamar blue assay. In kind it is functional, cell-based.
The test system of a further data set is Pfeiffer. As to the kind of experiment: Antiproliferative activity against human Pfeiffer cells measured after 72 hrs by alamar blue assay. Type of data set: functional, cell-based.
The next data set concerns NAMALVA. Nature of the data set: Antiproliferative activity against human NAMALWA cells measured after 72 hrs by alamar blue assay. Type of data set: functional, cell-based.
Another data set concerns SU-DHL-1. Nature of the data set: Antiproliferative activity against human SU-DHL1 cells measured after 72 hrs by alamar blue assay. In kind it is functional, cell-based. As to conditions: SU-DHL-1, 72 h.
A further data set relates to SUD4. As to the kind of experiment: Antiproliferative activity against human SU-DHL4 cells measured after 72 hrs by alamar blue assay. Type of data set: functional, cell-based. As to conditions: SU-DHL-4, 72 h.
The next data set relates to SU-DHL10. Nature of the data set: Antiproliferative activity against human SU-DHL10 cells measured after 72 hrs by alamar blue assay. Type of data set: functional, cell-based. To be noted: SU-DHL10, 72 h.
The test system of another data set is MOLT-4. As to the kind of experiment: Antiproliferative activity against human MOLT4 cells measured after 72 hrs by alamar blue assay. In kind it is functional, cell-based. As to conditions: MOLT-4, 72 h.
For data set [6], the target named is T4, Voltage-gated inwardly rectifying potassium channel KCNH2 (Homo sapiens, UniProt Q12809). As to the kind of experiment: Inhibition of human ERG.
T4 sequence (Q12809 whole entry): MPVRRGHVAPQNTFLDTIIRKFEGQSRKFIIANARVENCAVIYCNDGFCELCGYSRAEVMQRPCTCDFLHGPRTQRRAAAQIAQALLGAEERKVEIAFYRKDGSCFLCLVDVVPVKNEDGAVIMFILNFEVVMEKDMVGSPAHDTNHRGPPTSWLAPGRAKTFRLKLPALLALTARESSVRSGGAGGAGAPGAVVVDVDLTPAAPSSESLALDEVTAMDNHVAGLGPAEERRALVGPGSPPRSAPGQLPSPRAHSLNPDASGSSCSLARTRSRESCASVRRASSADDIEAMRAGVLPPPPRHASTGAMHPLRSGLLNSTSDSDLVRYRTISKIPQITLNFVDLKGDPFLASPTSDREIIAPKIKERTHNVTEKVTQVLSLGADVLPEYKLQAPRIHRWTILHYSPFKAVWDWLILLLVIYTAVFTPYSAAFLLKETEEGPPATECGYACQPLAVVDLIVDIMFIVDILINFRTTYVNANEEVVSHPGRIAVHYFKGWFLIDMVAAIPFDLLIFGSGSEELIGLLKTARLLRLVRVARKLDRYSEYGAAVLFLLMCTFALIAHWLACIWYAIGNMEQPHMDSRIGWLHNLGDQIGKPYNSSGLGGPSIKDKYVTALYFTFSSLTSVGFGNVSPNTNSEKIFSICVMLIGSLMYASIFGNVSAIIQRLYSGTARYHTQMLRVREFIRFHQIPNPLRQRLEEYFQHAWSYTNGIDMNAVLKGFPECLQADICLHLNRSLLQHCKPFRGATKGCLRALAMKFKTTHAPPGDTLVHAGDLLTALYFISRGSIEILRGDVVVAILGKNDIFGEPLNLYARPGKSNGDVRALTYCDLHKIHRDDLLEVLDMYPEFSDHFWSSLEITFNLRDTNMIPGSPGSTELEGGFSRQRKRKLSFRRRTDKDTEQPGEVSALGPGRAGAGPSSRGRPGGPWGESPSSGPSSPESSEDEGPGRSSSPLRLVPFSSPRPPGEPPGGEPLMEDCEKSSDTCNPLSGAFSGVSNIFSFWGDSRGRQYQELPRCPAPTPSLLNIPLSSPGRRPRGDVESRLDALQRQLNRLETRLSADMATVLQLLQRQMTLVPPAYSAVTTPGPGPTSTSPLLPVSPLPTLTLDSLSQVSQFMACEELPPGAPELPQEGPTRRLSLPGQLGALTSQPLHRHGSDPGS
Data set [7] deals with T4, Voltage-gated inwardly rectifying potassium channel KCNH2. As to the kind of experiment: (§1) Inhibition of human ERG at 40 uM relative to control. As to conditions: 40 µM.
Data set [8] addresses T5, Phosphatidylinositol 4,5-bisphosphate 3-kinase catalytic subunit delta isoform (Homo sapiens) (UniProt O00329).
T5 sequence (whole entry): T2 sequence (O00329 whole entry)
As to the kind of experiment: Inhibition of PI3Kdelta-mediated Akt phosphorylation at […] in human SUDHL6 cells measured after 1 hr by Western blot analysis. Type of data set: cell-based. (A western blot detects proteins with antibodies after separation by electrophoresis.)

Data set [9] addresses T5, Phosphatidylinositol 4,5-bisphosphate 3-kinase catalytic subunit delta isoform (Homo sapiens). As to the kind of experiment: Inhibition of PI3Kdelta-mediated Akt phosphorylation at […] in human MOLT4 cells measured after 1 hr by Western blot analysis. Type of data set: cell-based.
Data set [10] has the same target. Nature of the data set: Inhibition of PI3Kdelta-mediated S6k1 phosphorylation at T389 in human SUDHL6 cells measured after 1 hr by Western blot analysis. Type of data set: cell-based.
The target is the same in data set [11]. As to the kind of experiment: Inhibition of PI3Kdelta-mediated S6k1 phosphorylation at T389 in human MOLT4 cells measured after 1 hr by Western blot analysis. In kind it is cell-based.
For data set [12] the target is unchanged. As to the kind of experiment: Inhibition of PI3Kdelta-mediated Akt phosphorylation in human SUDHL6 cells at 3 nM measured after 1 hr by Western blot analysis. Type of data set: cell-based.
Another data set addresses hERG (KCNH2) (Homo sapiens, UniProt Q12809). The data set is described as §1.
A short description of data set [13]: Half life in Sprague-Dawley rat at 10 mg/kg, po. Type of data set: ADME, organism-based. As to conditions: in vivo.
The nature of data set [14]: AUClast in Sprague-Dawley rat at 10 mg/kg, po. Type of data set: ADME, organism-based. Also on record: dose 10 mg/kg, time 0 - last, route oral. To be noted: in vivo.
Data set [15] can be described thus: AUC (infinity) in Sprague-Dawley rat at 10 mg/kg, po. Type of data set: ADME, organism-based. More on the design: dose 10 mg/kg, route oral, time infinity. To be noted: in vivo.
A short description of data set [16]: Oral bioavailability in Sprague-Dawley rat at 10 mg/kg. Type of data set: ADME, organism-based. To be noted: in vivo.
A short description of data set [17]: Half life in Sprague-Dawley rat at 5 mg/kg, iv. As to conditions: in vivo. Type of data set: ADME, organism-based.
Data set [18] in a line: AUClast in Sprague-Dawley rat at 5 mg/kg, iv. More on the design: dose 5 mg/kg, time 0 - last, route intravenous. Type of data set: ADME, organism-based. As to conditions: in vivo.
For another data set, the system named is Rattus norvegicus. As to the kind of experiment: AUC (infinity) in Sprague-Dawley rat at 5 mg/kg, iv. In kind it is ADME, organism-based. More on the design: dose 5 mg/kg, time infinity, route intravenous. To be noted: in vivo.
The nature of data set [19]: Volume of distribution in Sprague-Dawley rat at 5 mg/kg, iv. To be noted: in vivo. Type of data set: ADME, organism-based.
Data set [20] concerns the target T2, Phosphatidylinositol 4,5-bisphosphate 3-kinase catalytic subunit delta isoform. As to the kind of experiment: Inhibition of PI3Kdelta (unknown origin) using biotinylated PIP2 as substrate after 2 hrs by TR-FRET assay.
Another data set deals with U-937. As to the kind of experiment: Inhibition of phorbol 12-myristate 13-acetate-induced peroxide production in human U937 cells. In kind it is functional, cell-based.
Data set [21] has as its target T3, Phosphatidylinositol 4,5-bisphosphate 3-kinase catalytic subunit alpha isoform. As to the kind of experiment: Inhibition of PI3Kalpha (unknown origin) using biotinylated PIP2 as substrate after 2 hrs by TR-FRET assay.
The target in data set [22] is T1, Phosphatidylinositol 4,5-bisphosphate 3-kinase catalytic subunit gamma isoform. Nature of the data set: Inhibition of PI3Kgamma (unknown origin) using biotinylated PIP2 as substrate after 2 hrs by TR-FRET assay.

Molecules are shown by their SMILES. Active and inactive are the calls of the source. The rule behind the calls is not given here.

Chain of Phosphatidylinositol 4,5-bisphosphate 3-kinase catalytic subunit beta isoform (P42338 whole entry, canonical isoform): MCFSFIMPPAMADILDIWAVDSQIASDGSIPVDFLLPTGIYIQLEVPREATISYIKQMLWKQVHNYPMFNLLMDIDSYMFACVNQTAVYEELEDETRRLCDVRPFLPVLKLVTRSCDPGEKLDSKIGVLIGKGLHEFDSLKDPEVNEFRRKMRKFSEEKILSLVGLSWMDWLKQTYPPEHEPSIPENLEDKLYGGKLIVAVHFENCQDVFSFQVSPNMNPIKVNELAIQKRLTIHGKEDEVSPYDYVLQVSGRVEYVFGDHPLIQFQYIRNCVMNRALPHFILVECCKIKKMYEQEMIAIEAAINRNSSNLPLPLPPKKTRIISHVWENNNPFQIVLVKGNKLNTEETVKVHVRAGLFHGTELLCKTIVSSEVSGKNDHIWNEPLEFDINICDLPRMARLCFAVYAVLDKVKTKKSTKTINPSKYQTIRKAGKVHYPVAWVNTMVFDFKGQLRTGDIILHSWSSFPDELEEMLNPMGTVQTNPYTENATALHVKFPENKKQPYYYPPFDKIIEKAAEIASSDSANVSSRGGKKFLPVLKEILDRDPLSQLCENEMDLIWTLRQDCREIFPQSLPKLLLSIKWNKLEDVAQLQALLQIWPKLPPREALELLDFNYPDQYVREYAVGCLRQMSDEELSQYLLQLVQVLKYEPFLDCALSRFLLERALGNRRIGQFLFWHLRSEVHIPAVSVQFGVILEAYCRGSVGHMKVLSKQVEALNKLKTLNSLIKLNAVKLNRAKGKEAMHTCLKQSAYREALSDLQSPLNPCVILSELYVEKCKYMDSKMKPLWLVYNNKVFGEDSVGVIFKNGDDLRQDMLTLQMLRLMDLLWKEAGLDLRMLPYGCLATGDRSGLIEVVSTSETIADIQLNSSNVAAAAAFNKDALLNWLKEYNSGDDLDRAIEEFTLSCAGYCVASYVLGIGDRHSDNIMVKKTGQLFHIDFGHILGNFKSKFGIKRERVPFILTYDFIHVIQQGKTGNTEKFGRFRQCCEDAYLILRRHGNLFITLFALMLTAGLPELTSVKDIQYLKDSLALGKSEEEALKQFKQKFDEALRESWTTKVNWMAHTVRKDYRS
T3 sequence (P42336 whole entry, canonical isoform): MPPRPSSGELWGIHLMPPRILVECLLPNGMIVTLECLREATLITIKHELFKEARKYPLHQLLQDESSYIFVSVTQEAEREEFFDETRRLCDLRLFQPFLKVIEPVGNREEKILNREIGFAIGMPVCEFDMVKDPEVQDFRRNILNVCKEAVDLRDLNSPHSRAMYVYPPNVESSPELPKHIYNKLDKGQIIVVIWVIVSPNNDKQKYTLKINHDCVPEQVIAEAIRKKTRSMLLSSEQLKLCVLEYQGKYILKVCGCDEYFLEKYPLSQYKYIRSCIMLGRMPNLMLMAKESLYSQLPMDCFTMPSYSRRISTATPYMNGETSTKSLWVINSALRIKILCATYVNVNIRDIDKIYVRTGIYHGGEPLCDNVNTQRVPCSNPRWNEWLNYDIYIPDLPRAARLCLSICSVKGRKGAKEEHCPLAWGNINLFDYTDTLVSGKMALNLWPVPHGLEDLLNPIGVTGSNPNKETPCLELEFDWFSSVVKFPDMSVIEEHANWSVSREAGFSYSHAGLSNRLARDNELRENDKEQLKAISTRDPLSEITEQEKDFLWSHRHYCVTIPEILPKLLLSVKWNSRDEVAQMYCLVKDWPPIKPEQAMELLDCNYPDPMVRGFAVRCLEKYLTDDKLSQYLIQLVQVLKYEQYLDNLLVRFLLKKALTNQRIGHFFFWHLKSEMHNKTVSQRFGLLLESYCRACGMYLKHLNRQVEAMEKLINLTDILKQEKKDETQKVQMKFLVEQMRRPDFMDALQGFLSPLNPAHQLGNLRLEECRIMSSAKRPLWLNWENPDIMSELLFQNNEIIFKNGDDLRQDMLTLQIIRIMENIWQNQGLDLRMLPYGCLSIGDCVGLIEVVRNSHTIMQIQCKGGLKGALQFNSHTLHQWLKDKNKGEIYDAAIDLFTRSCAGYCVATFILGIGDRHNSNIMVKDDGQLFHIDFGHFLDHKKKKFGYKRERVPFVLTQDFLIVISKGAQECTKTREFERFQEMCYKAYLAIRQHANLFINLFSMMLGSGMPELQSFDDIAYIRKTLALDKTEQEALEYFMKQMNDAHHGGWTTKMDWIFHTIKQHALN
T1 sequence (P48736 whole entry, canonical isoform): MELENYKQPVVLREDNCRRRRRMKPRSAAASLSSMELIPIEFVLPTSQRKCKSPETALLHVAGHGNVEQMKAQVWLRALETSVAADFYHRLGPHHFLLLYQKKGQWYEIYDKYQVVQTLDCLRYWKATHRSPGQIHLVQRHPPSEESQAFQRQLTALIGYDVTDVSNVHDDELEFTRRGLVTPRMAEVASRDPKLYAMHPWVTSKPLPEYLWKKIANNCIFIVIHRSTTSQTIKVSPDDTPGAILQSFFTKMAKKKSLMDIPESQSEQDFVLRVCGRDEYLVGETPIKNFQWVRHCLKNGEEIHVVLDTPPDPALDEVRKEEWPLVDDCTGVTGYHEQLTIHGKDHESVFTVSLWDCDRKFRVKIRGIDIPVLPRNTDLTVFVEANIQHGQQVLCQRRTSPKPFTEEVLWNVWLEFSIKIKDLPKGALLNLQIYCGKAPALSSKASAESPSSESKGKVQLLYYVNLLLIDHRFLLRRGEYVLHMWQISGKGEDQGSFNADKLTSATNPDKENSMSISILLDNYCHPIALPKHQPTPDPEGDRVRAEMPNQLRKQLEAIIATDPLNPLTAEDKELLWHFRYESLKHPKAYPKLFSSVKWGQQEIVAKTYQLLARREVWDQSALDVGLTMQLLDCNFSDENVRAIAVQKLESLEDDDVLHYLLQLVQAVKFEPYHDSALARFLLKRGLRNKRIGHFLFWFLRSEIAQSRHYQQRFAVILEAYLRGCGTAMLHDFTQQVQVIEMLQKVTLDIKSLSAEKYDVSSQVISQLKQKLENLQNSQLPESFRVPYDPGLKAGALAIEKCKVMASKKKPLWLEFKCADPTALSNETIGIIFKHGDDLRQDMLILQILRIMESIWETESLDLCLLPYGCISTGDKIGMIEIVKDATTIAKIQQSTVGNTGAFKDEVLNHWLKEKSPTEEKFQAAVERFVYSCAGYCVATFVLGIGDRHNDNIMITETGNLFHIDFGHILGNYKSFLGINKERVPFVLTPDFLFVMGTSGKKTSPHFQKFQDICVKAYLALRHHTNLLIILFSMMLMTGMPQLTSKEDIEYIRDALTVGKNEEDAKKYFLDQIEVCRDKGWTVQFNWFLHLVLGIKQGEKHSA

Usually IC50 stands for the concentration at which inhibition is half-maximal. For the compound `Cc1nc(N)nc(N2CCC[C@H]2c2nc3cccc(C#CCCCC(=O)N4CCCC4)c3c(=O)n2-c2ccccc2)c1C#N`, the half-maximal inhibitory concentration (IC50) in data set [1] amounted to 0.132 µM; in data set [2], 0.0071 µM; in the data set on SU-DHL-6 it was 0.0589 µM; in data set [3], 1.48 µM; in data set [4], 2.02 µM; in the data set with KARPAS-422, 4.3 µM. Besides, the IC50 was over 10 µM in data set [5]; over 10 µM in the data set on HT; 4.4 µM in the data set with Pfeiffer; 5.9 µM with NAMALVA; over 10 µM in the data set with SU-DHL-1; 4 µM with SUD4. Further, the figures for the half-inhibitory concentration (IC50) (in the data set with SU-DHL10; with MOLT-4; in [6]) were 4.5 µM, 6.7 µM and “Nd(Insoluble)”, respectively. In addition, the “inhibition (INH)” value in [7] was “Nd(Insoluble)”.

For orientation: inhibition means the share of the control response that was lost under treatment. One may read the half-life as how long it takes for the measured level to halve. High values mean slow loss, low ones fast loss. What is called AUC(0-t) is the area under the concentration-time curve up to a stated or last time point. High values mean high exposure, low ones low exposure. Broadly, the AUC(0-inf) is the area under the concentration-time curve extrapolated to infinity. What is called bioavailability is dose-corrected exposure relative to a reference, in per cent. By AUC is commonly meant the area under the concentration-time curve, a measure of exposure. A low value points to low exposure. As a reminder, the Vd is the apparent volume that relates the amount in the body to the concentration in plasma or blood. A higher Vd goes with extensive tissue distribution. Turning to `CC[C@H](Nc1nc(N)nc(N)c1C#N)c1nc2cccc(C#CCCCC(=O)N3CCOCC3)c2c(=O)n1-c1ccccc1`, the IC50 amounted to 0.0919 µM in data set [1]; 0.00382 µM in [2]; 0.0076 µM in the data set with SU-DHL-6; 0.591 µM in data set [3]; 0.509 µM in [4]; 2 µM in the data set with KARPAS-422. Moreover, the IC50 in data set [5] came to 5.7 µM; with HT, 4.9 µM; in the data set with Pfeiffer, 1.4 µM; with NAMALVA, 3.3 µM; in the data set on SU-DHL-1, 5.6 µM; with SUD4, 1.6 µM. For the same compound, the results for the IC50 (in the data set on SU-DHL10; with MOLT-4; in data set [6] (read-out: IC50)) were 1.9 µM, 2.4 µM and over 40 µM, respectively. The inhibition entry in [8], in data set [9], in [10] and in data set [11] was “Dose-dependent effect” throughout. The inhibition result in data set [12] is “Active”. Besides, at hERG (KCNH2), the inhibition at 40 µM worked out at 34.1%. The half-life was 1.46 h in [13] and 1.28 h in data set [17]. For the same compound, the exposure AUC(0-t) in data set [14] is 938 ng·h/mL; in data set [18], 1050 ng·h/mL. The AUC(0-inf) in data set [15] came to 958 ng·h/mL. The compound also yielded a bioavailability in [16] of 29.7%. In the data set on Rattus norvegicus, this compound had an AUC of 1057 ng·h/mL. The Vd in data set [19] turned out to be 0.545 L/kg.

For `COCCOCCNC(=O)CCCC#Cc1cccc2nc(Cn3nc(-c4cccc(O)c4)c4c(N)ncnc43)n(Cc3ccccc3Cl)c(=O)c12`, the IC50 was 0.003 to 0.012 µM in data set [20], 0.0011 µM in the data set on U-937, 1.49 µM in [21] and 0.047 µM in data set [22].

`CC[C@H](Nc1nc(N)nc(N)c1C#N)c1nc2cccc(C#CCCCC(=O)N3CCCC3)c2c(=O)n1-c1ccccc1`: the half-maximal inhibitory concentration (IC50) in [1] stood at 0.125 µM; in [2] it was 0.00673 µM; in the data set with SU-DHL-6, 0.0372 µM; in data set [3], 0.624 µM; in data set [4], 0.53 µM; in the data set with KARPAS-422, 2.1 µM. Further, the concentration for half-maximal inhibition (IC50) turned out to be 6.8 µM in [5]; 7.9 µM in the data set on HT; 2.2 µM in the data set on Pfeiffer; 6.2 µM in the data set on NAMALVA; 4.9 µM with SU-DHL-1; 1.7 µM in the data set on SUD4. The figures for the IC50 (in the data set with SU-DHL10; with MOLT-4; in [6] (read-out: IC50)) were 1.8 µM, 6.7 µM and over 40 µM, respectively. This compound yielded an inhibition at 40 µM against hERG (KCNH2) of 39.3%.
